Test [1] has as its system Escherichia coli. Kind of test: Antibacterial activity against Escherichia coli after 18 hrs by broth microdilution method. It is filed as functional. In general terms: Dilution methods test growth across graded concentrations, often in twofold steps.
In test [2] the test system is Mycobacterium tuberculosis. Briefly: Antitubercular activity against Mycobacterium tuberculosis H37Rv after 5 days by microplate Alamar blue assay. It is filed as functional. Conditions: 120 h. Background: Resazurin is reduced to fluorescent resorufin, in cell work by metabolically active cells.
For test [3], the system named is Staphylococcus aureus. Briefly: Antibacterial activity against Staphylococcus aureus after 18 hrs by broth microdilution method. It is filed as functional.
In test [4] the test system is Mycobacterium tuberculosis. Kind of test: Inhibition of Mycobacterium tuberculosis His6-tagged wild type InhA expressed in Escherichia coli BL21 at 50 uM using DDCoA as substrate relative to control.
For test [5], the system named is A549. Kind of test: Cytotoxicity against human A549 cells by MTT assay. It counts as cell-based. In general terms: Tetrazolium assays rely on reduction of a dye to a coloured formazan, in cell work by metabolically active cells.

This passage reports MIC, inhibition and IC50 results from ChEMBL document CHEMBL4002565, “Synthesis, biological evaluation and in silico molecular modeling of pyrrolyl benzohydrazide derivatives as enoyl ACP reductase inhibitors” (Eur J Med Chem, 2017).

Values after ≈ are worked out from the molar mass of the structure shown.

As usually defined, the MIC is the least concentration at which growth counts as inhibited. Low values mean a more susceptible organism, high ones a less susceptible organism. By inhibition is commonly meant how much of the control response was suppressed. Read a low inhibition as little suppression. In general, IC50 refers to the midpoint of a concentration-inhibition curve.

Turning to `Nc1ccccc1C(=O)NNC(=O)c1ccc(-n2cccc2)cc1`, the MIC in test [1] was determined as 12.5 µg/mL (≈ 39 µM); in test [2], 12.5 µg/mL (≈ 39 µM); in test [3], 25 µg/mL (≈ 78 µM).

On to `COc1ccc(C(=O)NNC(=O)c2ccc(-n3cccc3)cc2)cc1`, for which the MIC in test [1] amounted to 25 µg/mL (≈ 74.5 µM); in test [2], 12.5 µg/mL (≈ 37.3 µM); in test [3] it was 25 µg/mL (≈ 74.5 µM). The inhibition in test [4] was found to be 13%. In test [5], the IC50 amounted to 244 µM.

Take `O=C(NNC(=O)c1cccc(Cl)c1)c1ccc(-n2cccc2)cc1`: the MIC in test [1] amounted to 3.12 µg/mL (≈ 9.2 µM); in test [2], 6.25 µg/mL (≈ 18.4 µM); in test [3], 12.5 µg/mL (≈ 36.8 µM).

With `CC[C@@H](CO)NCCN[C@@H](CC)CO` [ETHAMBUTOL], in test [2], the minimum inhibitory concentration (MIC) worked out at 0.5 µg/mL (≈ 2.45 µM).

Consider `O=C(NNC(=O)c1ccc([N+](=O)[O-])cc1)c1ccc(-n2cccc2)cc1`, for which the minimum inhibitory concentration (MIC) in test [1] came out at 12.5 µg/mL (≈ 35.7 µM); in test [2], 12.5 µg/mL (≈ 35.7 µM); in test [3], 25 µg/mL (≈ 71.4 µM). In addition, in test [4], the inhibition is 22%. In test [5], this compound registered an IC50 of 96 µM.

On to `O=C(NNC(=O)c1ccc(-n2cccc2)cc1)c1ccc(O)cc1`, for which the MIC in test [1] was 12.5 µg/mL (≈ 38.9 µM); in test [2] it was 12.5 µg/mL (≈ 38.9 µM); in test [3], 25 µg/mL (≈ 77.8 µM). The same compound registered an inhibition in test [4] of 29%. Besides, 96 µM corresponded to half-maximal inhibition in test [5] (IC50).

As for `Cc1ccc(C(=O)NNC(=O)c2ccc(-n3cccc3)cc2)cc1`, the minimal inhibitory concentration (MIC) is 6.25 µg/mL (≈ 19.6 µM) in test [1], 12.5 µg/mL (≈ 39.1 µM) in test [2] and 25 µg/mL (≈ 78.3 µM) in test [3].

For the compound `O=C(NNC(=O)c1cccc([N+](=O)[O-])c1)c1ccc(-n2cccc2)cc1`, the MIC in test [1] stood at 25 µg/mL (≈ 71.4 µM); in test [2], 25 µg/mL (≈ 71.4 µM); in test [3] it was 50 µg/mL (≈ 143 µM).

Consider `O=C(NNC(=O)c1ccccc1Cl)c1ccc(-n2cccc2)cc1`, for which the figures for the MIC in test [1], in test [2] and in test [3] were 6.25 µg/mL (≈ 18.4 µM), 3.12 µg/mL (≈ 9.2 µM) and 12.5 µg/mL (≈ 36.8 µM), respectively.

In the case of `O=C(NNC(=O)c1ccccc1Br)c1ccc(-n2cccc2)cc1`, the MIC stood at 3.12 µg/mL (≈ 8.13 µM) in test [1], 3.12 µg/mL (≈ 8.13 µM) in test [2] and 6.25 µg/mL (≈ 16.3 µM) in test [3].

As to `O=C(NNC(=O)c1ccc(Cl)cc1Cl)c1ccc(-n2cccc2)cc1`, the minimum inhibitory concentration (MIC) in test [1] turned out to be 3.12 µg/mL (≈ 8.35 µM); in test [2] it was 3.12 µg/mL (≈ 8.35 µM); in test [3], 12.5 µg/mL (≈ 33.4 µM).

Take `Cc1ccccc1C(=O)NNC(=O)c1ccc(-n2cccc2)cc1`: the MIC in test [1] was determined as 12.5 µg/mL (≈ 39.1 µM); in test [2], 12.5 µg/mL (≈ 39.1 µM); in test [3], 25 µg/mL (≈ 78.3 µM). Also, the inhibition in test [4] was 12%. Also, the IC50 in test [5] was 196 µM.

For the compound `O=C(NNC(=O)c1ccc(-n2cccc2)cc1)c1ccc(F)cc1`, the results for the MIC in test [1], in test [2] and in test [3] were 3.12 µg/mL (≈ 9.67 µM), 6.25 µg/mL (≈ 19.3 µM) and 6.25 µg/mL (≈ 19.3 µM), respectively. In test [4], the inhibition was 35%. This compound also registered an IC50 in test [5] of 194 µM.

Regarding `O=C(NNC(=O)c1ccc(-n2cccc2)cc1)c1ccc(Cl)cc1`, the values for the minimum inhibitory concentration (MIC) in test [1], in test [2] and in test [3] were 3.12 µg/mL (≈ 9.2 µM), 3.12 µg/mL (≈ 9.2 µM) and 6.25 µg/mL (≈ 18.4 µM), respectively. For the same compound, the inhibition in test [4] was 36%. In test [5], this compound showed an IC50 of 40.2 µM.

As to `O=C(NNC(=O)c1ccc(-n2cccc2)cc1)c1ccccc1`, the MIC in test [1] came to 25 µg/mL (≈ 81.9 µM); in test [2], 50 µg/mL (≈ 164 µM); in test [3], 50 µg/mL (≈ 164 µM). Moreover, in test [4], the inhibition was found to be 13%. This compound returned an IC50 in test [5] of 248 µM.

In turn, `CO[C@H]1/C=C/O[C@@]2(C)Oc3c(C)c(O)c4c(O)c(c(/C=N/N5CCN(C)CC5)c(O)c4c3C2=O)NC(=O)/C(C)=C\C=C\[C@H](C)[C@H](O)[C@@H](C)[C@@H](O)[C@@H](C)[C@H](OC(C)=O)[C@@H]1C` [RIFAMPIN] had an MIC in test [2] of 0.4 µg/mL (≈ 0.486 µM).

Take `Nc1cccc(C(=O)NNC(=O)c2ccc(-n3cccc3)cc2)c1`: the results for the MIC in test [1], in test [2] and in test [3] were 25 µg/mL (≈ 78 µM), 25 µg/mL (≈ 78 µM) and 50 µg/mL (≈ 156 µM), respectively.

The compound `O=C(O)c1cn(C2CC2)c2cc(N3CCNCC3)c(F)cc2c1=O` [CIPROFLOXACIN] registered an MIC in test [3] of 0.15 µg/mL (≈ 0.453 µM).

The compound `Oc1cc(Cl)ccc1Oc1ccc(Cl)cc1Cl` displayed an inhibition in test [4] of more than 99%.

As to `CC(=O)c1cccc(C(=O)NNC(=O)c2ccc(-n3cccc3)cc2)c1`, the MIC in test [1] amounted to 12.5 µg/mL (≈ 36 µM); in test [2], 12.5 µg/mL (≈ 36 µM); in test [3], 25 µg/mL (≈ 72 µM). This compound showed an inhibition in test [4] of 31%. Moreover, the IC50 in test [5] is 79.2 µM.

As to `Nc1ccc(C(=O)NNC(=O)c2ccc(-n3cccc3)cc2)cc1`, the MIC was found to be 12.5 µg/mL (≈ 39 µM) in test [1], 12.5 µg/mL (≈ 39 µM) in test [2] and 25 µg/mL (≈ 78 µM) in test [3].

As to `Cc1cccc(C(=O)NNC(=O)c2ccc(-n3cccc3)cc2)c1`, the minimal inhibitory concentration (MIC) came out at 12.5 µg/mL (≈ 39.1 µM) in test [1], 12.5 µg/mL (≈ 39.1 µM) in test [2] and 50 µg/mL (≈ 157 µM) in test [3]. The inhibition in test [4] amounted to 29%. In test [5], this compound came in with an IC50 of 196 µM.

Take `CCn1cc(C(=O)O)c(=O)c2cc(F)c(N3CCNCC3)cc21` [NORFLOXACIN]: the MIC amounted to 4 µg/mL (≈ 12.5 µM) in test [1] and 2.02 µg/mL (≈ 6.33 µM) in test [3].

As to `O=C(NNC(=O)c1ccc(-n2cccc2)cc1)c1ccc(Br)cc1`, the MIC in test [1] amounted to 3.12 µg/mL (≈ 8.13 µM); in test [2], 3.12 µg/mL (≈ 8.13 µM); in test [3] it was 6.25 µg/mL (≈ 16.3 µM). Moreover, the inhibition in test [4] was determined as 38%. In test [5], this compound yielded an IC50 of 40.2 µM.
